Measurements reported in patent US20240308987A1, “SMALL MOLECULE INHIBITOR AGAINST NASOPHARYNGEAL CARCINOMA, PREPARATION METHOD AND APPLICATION THEREOF” (SHENZHEN BAY LABORATORY, priority 2021, published 2024).

Tested on: C666-1 cells
Test: C666-1 Cell Viability Assay (Resazurin cytotoxicity test)
Assay type: cell-based
Conditions: Homo sapiens, C6661, EB virus-positive C666-1 cells, 72 hours treatment, 100-0.78 micromole/L, read-out: Inhibitory Rate
Description: In order to evaluate the inhibitory effect of the small molecular compound of the present disclosure on EBNA1 at the cellular level, a cytotoxicity test was performed.
As mentioned in the Background of the present disclosure, nasopharyngeal carcinoma is a kind of disease highly associated with latent infection of EB virus. EB virus in latent state only expresses limited proteins to maintain its genome replication, among which EBNA1 protein is an essential functional protein. Studies have confirmed that inhibition of EBNA1 can reduce the proliferation of the corresponding nasopharyngeal carcinoma cells or kill them. Therefore, EB virus-positive nasopharyngeal carcinoma tumor cells (C666-1 cells) are selected for test to verify the effect of the small molecular compound of the present disclosure.
During testing, 100 microliters of different cell lines were inoculated onto a transparent 96-well plate, and 5×10^3 cells were inoculated in each well for C666-1 cells. After the cells were cultured in an incubator under […] at 37° C. for 24 hours, 10 microliters of compound with a concentration ranging from 1 mmol/L to 7.8 micromol/L were added to each well (8 points, double dilution, the final concentration was 100-0.78 micromole/L), and treated in the incubator under carbon dioxide at 37° C. for 72 hours. Cell viability was assessed using the redox indicator Resazurin. After addition of 10 microliters of 600 micromole/liter Resazurin to each well and incubation at 37° C. for 3 hours. Using a Tecan microplate reader, the fluorescence signals were detected at an […]. A software was used to fit the inhibition curve and calculate half-maximal effect concentration (EC50). The selectivity of compound activity was assessed by comparing the EC50 values of EB virus-positive and EB virus-negative cell lines.

SMILES	EC50 [µM]
COC(=O)c1cccc(N2CC(Oc3ccc(COc4ccncc4)cc3)C2)c1-n1cccc1 [Example 8, methyl 3-(3-(4-((pyridin-4-yloxy)methyl)phenoxy)azetidin-1-yl)-2-(1H-pyrrol-1-yl) benzoate]	10 to 50
COC(=O)c1cccc(N2CC(Oc3ccc(COc4ccsn4)cc3)C2)c1-n1cccc1 [Example 33, methyl 3-(3-(4-((isothiazol-3-yloxy)methyl)phenoxy)azetidin-1-yl)-2-(1H-pyrrol-1-yl) benzoate]	> 50
O=C(NO)c1cccc(N2CC(Oc3ccc(COc4cccnc4)cc3)C2)c1-n1cccc1 [Example 1c, N-hydroxy-3-(3-(4-((pyridin-3-yloxy)methyl)phenoxy)azetidin-1-yl)-2-(1H-pyrrole-1-yl) benzamide]	< 1
O=C(O)c1cccc(N2CC(Oc3ccc(COc4ccccn4)cc3)C2)c1-n1cccc1 [Example 12a, 3-(3-(4-((pyridin-2-yloxy)methyl)phenoxy)azetidin-1-yl)-2-(1H-pyrrol-1-yl) benzoic acid]	> 50
O=C(Cc1ccc(C#Cc2cccc(C(=O)O)c2-c2ccc3cc[nH]c3c2)cc1)Nc1cccnc1 [Example 61a, 2-(1H-indol-6-yl)-3-((4-(2-oxo-2-(pyridin-3-ylamino)ethyl)phenyl)ethynyl) benzoic acid]	< 1
COC(=O)c1cccc(N2CC(Oc3ccc(COc4cccnc4)cc3C)C2)c1-n1cccc1 [Example 16, methyl 3-(3-(2-methyl-4-((pyridin-3-yloxy)methyl)phenoxy)azetidin-1-yl)-2-(1H-pyrrol-1-yl) benzoate]	10 to 50
O=C(O)c1cccc(N2CC(Oc3ccc(CNc4cccnc4)cc3)C2)c1-c1ccccc1 [Example 39a, 6-(3-(4-((pyridin-3-ylamino)methyl)phenoxy)azetidin-1-yl)-[1,1′-biphenyl]-2-carboxylic acid]	> 50
COC(=O)c1cccc(C#Cc2ccc(NC(=O)Nc3cccnc3)cc2)c1-c1ccc2cc[nH]c2c1 [Example 59, methyl 2-(1H-indol-6-yl)-3-((4-(3-(pyridin-3-yl)ureido)phenyl)ethynyl) benzoate]	< 1
COC(=O)c1cccc(N2CC(Oc3cccc(COc4cccnc4)c3)C2)c1-n1cccc1 [Example 21, methyl 3-(3-(3-((pyridin-3-yloxy)methyl)phenoxy)azetidin-1-yl)-2-(1H-pyrrol-1-yl) benzoate]	10 to 50
O=C(Nc1ccc(C#Cc2cccc(C(=O)O)c2-c2ccccc2)cc1)Nc1cccnc1 [Example 58a, 6-((4-(3-(pyridin-3-yl)ureido)phenyl)ethynyl)-[1,1′-biphenyl]-2-carboxylic acid]	1 to 10
COC(=O)c1cccc(N2CC(Oc3ccc(NC(=O)Nc4cccnc4)cc3)C2)c1-c1ccccc1 [Example 42, methyl 6-(3-(4-(3-(pyridin-3-yl)ureido)phenoxy)azetidin-1-yl)-[1,1′-biphenyl]-2-carboxylate]	< 1
COC(=O)c1cccc(N2CC(Oc3ccc(COCc4cccnc4)cc3)C2)c1-n1cccc1 [Example 27, methyl 3-(3-(4-((pyridin-3-ylmethoxy)methyl)phenoxy)azetidin-1-yl)-2-(1H-pyrrol-1-yl) benzoate]	10 to 50
O=C(Cc1cccnc1)Nc1ccc(OC2CN(c3cccc(C(=O)O)c3-n3cccc3)C2)cc1 [Example 51a, 3-(3-(4-(2-(pyridin-3-yl)acetamido)phenoxy)azetidin-1-yl)-2-(1H-pyrrol-1-yl) benzoic acid]	< 1
CNC(=O)c1cccc(N2CC(Oc3ccc(NC(=O)Cc4cccnc4)cc3)C2)c1-c1ccccc1 [Example 45c, N-methyl-6-(3-(4-(2-(pyridin-3-yl)acetamido)phenoxy)azetidin-1-yl)-[1,1′-biphenyl]-2-carboxamide]	< 1
COC(=O)c1cccc(N2CC(Oc3ccc(NC(=O)Cc4cccnc4)cc3)C2)c1-c1cccc(Cl)c1 [Example 48, methyl 3′-chloro-6-(3-(4-(2-(pyridin-3-yl)acetamido)phenoxy)azetidin-1-yl)-[1,1′-biphenyl]-2-carboxylate]	< 1
O=C(Nc1ccc(OC2CN(c3cccc(C(=O)NO)c3-n3cccc3)C2)cc1)Nc1cccc(C(F)(F)F)c1 [Example 10b, N-hydroxy-2-(1H-pyrrol-1-yl)-3-(3-(4-(3-(3-(trifluoromethyl)phenyl)ureido)phenoxy)azetidin-1-yl) benzamide]	1 to 10
O=C(O)c1cccc(N2CC(Oc3ccc(Cn4ccnc4)cc3)C2)c1-n1cccc1 [Example 56a, 3-(3-(4-((1H-imidazol-1-yl)methyl)phenoxy)azetidin-1-yl)-2-(1H-pyrrol-1-yl) benzoic acid]	10 to 50

SMILES	EC50 [µM]
COC(=O)c1cccc(N2CC(Oc3ccc(CC(=O)Nc4ccccc4)cc3)C2)c1-n1cccc1 [Example 35, methyl 3-(3-(4-(2-oxo-2-(phenylamino)ethyl)phenoxy)azetidin-1-yl)-2-(1H-pyrrol-1-yl) benzoate]	> 50
O=C(Cc1cccnc1)Nc1ccc(OC2CN(c3cccc(C(=O)O)c3Cl)C2)cc1 [Example 55a, 2-chloro-3-(3-(4-(2-(pyridin-3-yl)acetamido)phenoxy)azetidin-1-yl) benzoic acid]	10 to 50
COC(=O)c1cccc(N2CC(Oc3ccc(CC(=O)Nc4cccnc4)cc3)C2)c1-c1ccccc1 [Example 40, methyl 6-(3-(4-(2-oxo-2-(pyridin-3-ylamino)ethyl)phenoxy)azetidin-1-yl)-[1,1′-biphenyl]-2-carboxylate]	< 1
Cc1cncc(NC(=O)Nc2ccc(OC3CN(c4cccc(C(=O)O)c4-n4cccc4)C3)cc2)c1 [Example 47a, 3-(3-(4-(3-(5-methylpyridin-3-yl)ureido)phenoxy)azetidin-1-yl)-2-(1H-pyrrol-1-yl) benzoic acid]	< 1
COC(=O)c1cccc(N2CC(Oc3ccc(CC(=O)Nc4cccnc4)cc3)C2)c1-c1ccc2cc[nH]c2c1 [Example 44, methyl 2-(1H-indol-6-yl)-3-(3-(4-(2-oxo-2-(pyridin-3-ylamino)ethyl)phenoxy)azetidin-1-yl) benzoate]	< 1
O=C(O)c1cccc(N2CC(Oc3ccc(COc4cccnc4)c(F)c3)C2)c1-n1cccc1 [Example 20a, 3-(3-(3-fluoro-4-((pyridin-3-yloxy)methyl)phenoxy)azetidin-1-yl)-2-(1H-pyrrol-1-yl) benzoic acid]	10 to 50
O=C(NO)c1cccc(N2CC(Oc3ccc(COc4cncnc4)cc3)C2)c1-n1cccc1 [Example 14b, N-hydroxy-3-(3-(4-((pyrimidin-5-yloxy)methyl)phenoxy)azetidin-1-yl)-2-(1H-pyrrol-1-yl) benzamide]	1 to 10
COC(=O)c1cccc(C#Cc2ccc(NC(=O)Nc3cccnc3)cc2)c1-c1ccccc1 [Example 58, methyl 6-((4-(3-(pyridin-3-yl)ureido)phenyl)ethynyl)-[1,1′-biphenyl]-2-carboxylate]	< 1
O=C(O)c1cccc(N2CC(Oc3ccc(COc4cnc5ccccc5c4)cc3)C2)c1-n1cccc1 [Example 9a, 2-(1H-pyrrol-1-yl)-3-(3-(4-((quinolin-3-yloxy)methyl)phenoxy)azetidin-1-yl) benzoic acid]	> 50
COC(=O)c1cccc(N2CC(Oc3ccc(NC(=O)Nc4cncc(F)c4)cc3)C2)c1-n1cccc1 [Example 46, methyl 3-(3-(4-(3-(5-fluoropyridin-3-yl)ureido)phenoxy)azetidin-1-yl)-2-(1H-pyrrol-1-yl) benzoate]	1 to 10
CN(C(=O)Nc1cccc(C#N)c1)c1ccc(OC2CN(c3cccc(C(=O)O)c3-n3cccc3)C2)cc1 [Example 7a, 3-(3-(4-(3-(3-cyanophenyl)-1 - methylureido)phenoxy)azetidin-1-yl)-2-(1H-pyrrol-1-yl) benzoic acid]	10 to 50
O=C(Cc1cccnc1)Nc1ccc(OC2CN(c3cccc(C(=O)O)c3-c3ccccc3)C2)cc1F [Example 54a, 6-(3-(3-fluoro-4-(2-(pyridin-3-yl)acetamido)phenoxy)azetidin-1-yl)-[1,1′-biphenyl]-2-carboxylic acid]	1 to 10
O=C(NO)c1cccc(N2CC(Oc3ccc(OCc4cccnc4)cc3)C2)c1-n1cccc1 [Example 24b, N-hydroxy-3-(3-(4-(pyridin-3-ylmethoxy)phenoxy)azetidin-1-yl)-2-(1H-pyrrol-1-yl) benzamide]	< 1
COC(=O)c1cccc(N2CC(Oc3ccc(COc4ncccn4)cc3)C2)c1-n1cccc1 [Example 11, methyl 3-(3-(4-((pyrimidin-2-yloxy)methyl)phenoxy)azetidin-1-yl)-2-(1H-pyrrol-1-yl) benzoate]	> 50
COC(=O)c1cccc(N2CC(Oc3ccc(NC(=O)Nc4cncc(C)c4)cc3)C2)c1-n1cccc1 [Example 47, methyl 3-(3-(4-(3-(5-methylpyridin-3-yl)ureido)phenoxy)azetidin-1-yl)-2-(1H-pyrrol-1-yl) benzoate]	10 to 50
COC(=O)c1cccc(N2CC(Oc3ccc(NC(=O)c4cccnc4)cc3)C2)c1-n1cccc1 [Example 31, methyl 3-(3-(4-(nicotinamido)phenoxy)azetidin-1-yl)-2-(1H-pyrrol-1-yl) benzoate]	10 to 50
